Reference: patent publication US12673946B2, “Pyrimidin-4(3H)-one derivatives as TRPV4 antagonists” (RaQualia Pharma Inc., priority 2020, dated 2026)
pIC50: −log10 of the molar value.

Target: T1, human TRPV4 (Homo sapiens, UniProt Q9HBA0)
T1 construct: host or cells: tetracycline-inducible Flp-In T-REx 293 cells
Test: Hypotonicity-induced Ca2+ influx (Fluo-4, FDSS)
Format: cell-based
Method: Hypotonicity-Induced Ca^2+ Influx
TRPV4 channel activation/opening results in an influx of Ca^2+ (Liedtke, W. et al., 2000 (NPL 1)). The resulting changes in intracellular calcium are monitored using a Ca^2+ sensitive fluorescent dye Fluo-4 (Invitrogen). Dye loaded cells are treated with the test compounds for 5 minutes prior to the addition of a hypotonic solution and the inhibition of the hypotonicity-induced activation is recorded.
Forty microL of tetracycline-inducible Flp-In T-REx 293 cells (Invitrogen) stably expressing human TRPV4 are seeded onto the poly-D-lysine coated 384-well plate (Corning) at a density of 10,000 cells per well. The following day, TRPV4 expression is induced by adding 0.5 microg/mL tetracycline for 20-24 hours. On the day of the experiment, the media is removed and replaced with 40 microL of dye loading buffer [1 microM Fluo-4 AM (Invitrogen), 0.01% Pluronic F-127, and 20 mM HEPES in Hanks' balanced salt solutions (HBSS; Invitrogen)] and then the cells are incubated for 60 minutes at 25° C. Dye is then removed and replaced with 20 microL of assay buffer (20 mM HEPES in HBSS). Five minutes prior to the fluorescence measurement, 10 microL of test compound is added to the cells. Using the FDSS instrument (Hamamatsu Photonics), 30 microL of hypotonic solution (90 mM D-mannitol and 1.26 mM CaCl2 in ultrapure water) is added 30 seconds after the start of measurement. The calcium flux signal is recorded for a total of 4.5 minutes.

[1] = Flp-In T-REx 293 cells expressing human TRPV4, examples listed under heading 'Human IC50<50 nM'
[2] = Flp-In T-REx 293 cells stably expressing human TRPV4, compounds listed by potency bin (<10 nM Tables 96-1/96-2, <3 nM Table 97)

T1 sequence (Q9HBA0 whole entry): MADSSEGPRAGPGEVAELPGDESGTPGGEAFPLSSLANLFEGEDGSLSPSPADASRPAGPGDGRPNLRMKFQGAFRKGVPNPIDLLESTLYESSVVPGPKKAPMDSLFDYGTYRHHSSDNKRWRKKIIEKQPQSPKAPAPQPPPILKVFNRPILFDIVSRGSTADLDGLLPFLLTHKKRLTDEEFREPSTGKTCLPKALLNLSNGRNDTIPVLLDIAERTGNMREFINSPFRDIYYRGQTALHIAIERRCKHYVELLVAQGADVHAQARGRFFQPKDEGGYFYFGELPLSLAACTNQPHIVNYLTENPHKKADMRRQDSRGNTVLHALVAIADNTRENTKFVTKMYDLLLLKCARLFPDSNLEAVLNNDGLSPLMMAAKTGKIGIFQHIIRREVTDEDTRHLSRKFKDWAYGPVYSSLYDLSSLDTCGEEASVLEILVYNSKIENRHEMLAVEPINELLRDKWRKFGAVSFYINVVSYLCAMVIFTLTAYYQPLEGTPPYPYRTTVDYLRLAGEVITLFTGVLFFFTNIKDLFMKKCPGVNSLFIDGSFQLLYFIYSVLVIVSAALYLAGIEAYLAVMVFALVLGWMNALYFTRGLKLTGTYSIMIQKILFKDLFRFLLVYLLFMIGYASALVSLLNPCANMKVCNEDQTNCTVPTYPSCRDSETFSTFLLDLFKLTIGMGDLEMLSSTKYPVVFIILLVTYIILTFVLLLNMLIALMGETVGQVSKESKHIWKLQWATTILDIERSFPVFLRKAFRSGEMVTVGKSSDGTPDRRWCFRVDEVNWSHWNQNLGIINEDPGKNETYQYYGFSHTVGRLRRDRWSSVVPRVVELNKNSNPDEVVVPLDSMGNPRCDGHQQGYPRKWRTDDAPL

Row | Structure (SMILES) | pIC50 [1] | pIC50 [2]
1 | O=C(C(O)c1cccc(-c2cccc(F)c2)c1)N1CCc2nc(C3(c4cccc(F)c4)CC3)[nH]c(=O)c2C1 (stereo not drawn) [14-19] | > 7.30 | 
2 | O=C([C@H](O)c1cccc(C(F)(F)F)c1)N1CCc2nc(C3(c4cncc(C5CCOCC5)c4)CC3)[nH]c(=O)c2C1 [28-5] | > 7.30 | 
3 | O=C(C(O)c1cccc(-c2cccc(C(F)(F)F)c2)c1)N1CCCc2nc(C3(c4cncc(-c5ccccc5)c4)CC3)[nH]c(=O)c2C1 (stereo not drawn) [56-2] | > 7.30 | > 8.52
4 | CC(C)(C)c1cccc(C(O)C(=O)N2CCCc3nc(C4(c5cccs5)CC4)[nH]c(=O)c3C2)c1 (stereo not drawn) [18-7] | > 7.30 | > 8.00
5 | O=C([C@H](O)c1cccc(-c2ccnc(C(F)(F)F)c2)c1)N1CCCc2nc(C3(c4cccc(Cl)c4)CC3)[nH]c(=O)c2C1 [50-11] | > 7.30 | > 8.52
6 | O=C(C(O)c1cccc(-c2cccc(OC(F)(F)F)c2)n1)N1CCc2nc(C3(c4ccccc4)CC3)[nH]c(=O)c2C1 (stereo not drawn) [48-2] | > 7.30 | > 8.00
7 | COc1cccc(C2(c3nc4c(c(=O)[nH]3)CN(C(=O)[C@H](O)c3cccc(C(F)(F)F)c3)CCC4)CC2)c1 [17-54] | > 7.30 | 
8 | O=C([C@H](O)c1cccc(-c2ccc(Cl)c(OC(F)(F)F)c2)c1)N1CCc2nc(C3(c4ccccc4)CC3)[nH]c(=O)c2C1 [44-97] | > 7.30 | > 8.00
9 | CC(C)Oc1cccc(-c2cccc(C(F)(F)C(=O)N3CCCc4nc(C5(c6ccccc6)CC5)[nH]c(=O)c4C3)c2)c1 [58-3] | > 7.30 | > 8.00
10 | O=C([C@H](O)c1cccc(Cl)c1)N1CCc2nc(C3(c4cccc(Cl)c4)CC3)[nH]c(=O)c2C1 [3-50] | > 7.30 | 
11 | O=C([C@H](O)c1cccc(Cl)c1)N1CCCc2nc(C3(c4cccc(F)c4)CC3)[nH]c(=O)c2C1 [17-57] | > 7.30 | 
12 | Cn1ccc(-c2cccc(C3(c4nc5c(c(=O)[nH]4)CN(C(=O)[C@H](O)c4cccc(C(F)(F)F)c4)CCC5)CC3)c2)n1 [42-34] | > 7.30 | 
13 | O=C([C@H](O)c1cccc(C(F)(F)F)c1)N1CCCc2nc(C3(c4cncc(C5CCCCC5)c4)CC3)[nH]c(=O)c2C1 [19-1] | > 7.30 | > 8.52
14 | O=C(C(O)c1cc(Cl)cc(Cl)c1)N1CCCc2nc(C3(c4ccccc4)CC3)[nH]c(=O)c2C1 (stereo not drawn) [17-61] | > 7.30 | 
15 | CC(C)(C)c1cc(-c2cccc([C@@H](O)C(=O)N3CCc4nc(C5(c6ccccc6)CC5)[nH]c(=O)c4C3)c2)cc(C(C)(C)C)c1 [44-103] | > 7.30 | > 8.00
16 | O=C(C(O)c1cccc(Cl)c1F)N1CCCc2nc(C3(c4cncc(-c5ccccc5)c4)CC3)[nH]c(=O)c2C1 (stereo not drawn) [19-11] | > 7.30 | > 8.52
17 | N#Cc1ccc(-c2cccc(CC(=O)N3CCCc4nc(C5(c6ccccc6)CC5)[nH]c(=O)c4C3)c2)cc1 [17-131] | > 7.30 | 
18 | O=C([C@H](O)c1cccc(-c2cccc(C(F)(F)F)c2)c1)N1CCCc2nc(C3(c4cc(C5CCCCC5)cs4)CC3)[nH]c(=O)c2C1 [54-9] | > 7.30 | > 8.00
19 | O=C([C@H](O)c1cccc(C(F)(F)F)c1)N1CCc2nc(C3(c4cc(C5CCC(F)(F)CC5)cs4)CC3)[nH]c(=O)c2C1 [26-1] | > 7.30 | > 8.00
20 | O=C([C@H](O)c1cccc(C(F)(F)F)c1)N1CCCc2nc(C3(c4cccc(C5CCCC5)c4)CC3)[nH]c(=O)c2C1 [31-5] | > 7.30 | > 8.52
21 | O=C([C@H](O)c1cccc(-c2cccc(C3CC3)c2)c1)N1CCc2nc(C3(c4ccccc4)CC3)[nH]c(=O)c2C1 [44-105] | > 7.30 | > 8.00
22 | CC(C)c1csc(C2(c3nc4c(c(=O)[nH]3)CN(C(=O)[C@H](O)c3cccc(-c5cccc(Cl)c5)c3)CCC4)CC2)c1 [54-3] | > 7.30 | > 8.00
23 | O=C([C@H](O)c1cccc(C(F)(F)F)c1)N1CCc2nc(C3(c4cncc(C5CCCCC5)c4)CC3)[nH]c(=O)c2C1 [28-2] | > 7.30 | > 8.00
24 | O=C([C@H](O)c1cccc(-c2cccc(OC(F)(F)F)c2)c1)N1CCCc2nc(C3(c4cncc(C5CCCCC5)c4)CC3)[nH]c(=O)c2C1 [55-10] | > 7.30 | > 8.00
25 | O=C([C@H](O)c1cccc(-c2cccc(C(F)(F)F)c2)c1)N1CCCc2c(nc(C3(c4ccccc4)CC3)[nH]c2=O)C1 [49-54] | > 7.30 | > 8.00
26 | O=C(C(O)c1cncc(-c2cccc(F)c2)c1)N1CCc2nc(C3(c4ccccc4)CC3)[nH]c(=O)c2C1 (stereo not drawn) [48-11] | > 7.30 | 
27 | N#Cc1ccc(-c2cccc(CC(=O)N3CCc4nc(C5(c6cccc(Cl)c6)CC5)[nH]c(=O)c4C3)c2)cc1 [14-115] | > 7.30 | 
28 | O=C([C@H](O)c1cccc(C(F)(F)F)c1)N1CCCc2nc(C3(c4cccc(-c5ccc(CN6CCc7c(Cl)cccc7C6)cc5)c4)CC3)[nH]c(=O)c2C1 [42-96] | > 7.30 | > 8.00
29 | CC(C)Oc1cccc(-c2cccc([C@@H](O)C(=O)N3CCCc4nc(C5(c6ccccc6)CC5)[nH]c(=O)c4C3)c2)c1 [49-45] | > 7.30 | > 8.52

The next lines start with the values.

Row | pIC50 [1] | pIC50 [2] | Structure (SMILES)
30 | > 7.30 | > 8.00 | O=C([C@H](O)c1cccc(-c2ccc(OCc3ccccc3)cc2)c1)N1CCc2nc(C3(c4ccccc4)CC3)[nH]c(=O)c2C1 [44-107]
31 | > 7.30 |  | O=C(C(O)c1cccc(-c2ccc(Cl)cc2)c1)N1CCc2nc(C3(c4cccs4)CC3)[nH]c(=O)c2C1 (stereo not drawn) [15-10]
32 | > 7.30 |  | O=C(C(O)c1cccc(-c2ccccc2F)c1)N1CCc2nc(C3(c4ccccc4)CC3)[nH]c(=O)c2C1 (stereo not drawn) [44-43]
33 | > 7.30 | > 8.00 | O=C([C@H](O)c1cccc(-c2cccc(Cl)c2)c1)N1CCc2nc(C3(c4ccccc4)CC3)[nH]c(=O)c2C1 [44-73]
34 | > 7.30 | > 8.00 | O=C([C@H](O)c1cccc(C(F)(F)F)c1)N1CCCc2nc(C3(c4cc(-c5cnsc5)cs4)CC3)[nH]c(=O)c2C1 [41-3]
35 | > 7.30 | > 8.00 | O=C([C@H](O)c1cccc(C(F)(F)F)c1)N1CCCc2nc(C3(c4cccc(-c5nc6ccccc6s5)c4)CC3)[nH]c(=O)c2C1 [17-97]
36 | > 7.30 | > 8.00 | CN(C(=O)c1csc(C2(c3nc4c(c(=O)[nH]3)CN(C(=O)[C@H](O)c3cccc(C(F)(F)F)c3)CCC4)CC2)c1)C(c1ccccc1)c1ccccc1 [59-13]
37 | > 7.30 | > 8.00 | O=C(C(O)c1cccc(Cl)c1F)N1CCCc2nc(C3(c4cccc(Oc5ccccc5)c4)CC3)[nH]c(=O)c2C1 (stereo not drawn) [17-81]
38 | > 7.30 | > 8.00 | O=C(Cc1cccc(-c2cccc(C(F)(F)F)c2)c1)N1CCCc2nc(C3(c4cc(-c5ccccc5)cs4)CC3)[nH]c(=O)c2C1 [18-28]
39 | > 7.30 | > 8.00 | CC(C)(C)CCc1csc(C2(c3nc4c(c(=O)[nH]3)CN(C(=O)[C@H](O)c3cccc(C(F)(F)F)c3)CCC4)CC2)c1 [30-4]
40 | > 7.30 |  | CC(C)c1cccc(C2(c3nc4c(c(=O)[nH]3)CN(C(=O)Cc3cccc(-c5cccc(Cl)c5)c3)CC4)CC2)c1 [27-5]
41 | > 7.30 |  | O=C(Cc1cccc(OC(F)(F)F)c1)N1CCCc2nc(C3(c4cccc(Cl)c4)CC3)[nH]c(=O)c2C1 [17-112]
42 | > 7.30 | > 8.00 | O=C([C@H](O)c1cccc(-c2cccc(C(F)(F)F)c2)c1)N1CCCc2nc(C3(c4cccs4)CC3)[nH]c(=O)c2C1 [53-1]
43 | > 7.30 | > 8.00 | O=C(Cc1cccc(OCc2ccccc2)c1)N1CCCc2nc(C3(c4cccc(Cl)c4)CC3)[nH]c(=O)c2C1 [17-122]
44 | > 7.30 |  | O=C(C(O)c1cccc(C2CC2)c1)N1CCc2nc(C3(c4cccc(Cl)c4)CC3)[nH]c(=O)c2C1 (stereo not drawn) [14-15]
45 | > 7.30 | > 8.52 | O=C([C@H](O)c1cccc(Cl)c1)N1CCCc2nc(C3(c4cccc(OCc5ccccc5)c4)CC3)[nH]c(=O)c2C1 [17-91]
46 | > 7.30 | > 8.52 | O=C([C@H](O)c1cccc(-c2ccc3c(c2)OC(F)(F)O3)c1)N1CCCc2nc(C3(c4ccccc4)CC3)[nH]c(=O)c2C1 [49-39]
47 | > 7.30 | > 8.00 | O=C(C(O)c1cccc(-c2cccc(OC(F)(F)F)c2)c1)N1CCc2nc(C3(c4cccc(Cl)c4)CC3)[nH]c(=O)c2C1 (stereo not drawn) [14-5]
48 | > 7.30 |  | O=C(CCc1cccc(C(F)(F)F)c1)N1CCCc2nc(C3(c4cccc(Cl)c4)CC3)[nH]c(=O)c2C1 [17-121]
49 | > 7.30 | > 8.00 | CC(C)(C)c1cccc(-c2cccc(CC(=O)N3CCCc4nc(C5(c6ccccc6)CC5)[nH]c(=O)c4C3)c2)c1 [57-4]
50 | > 7.30 | > 8.00 | CC(C)c1cccc(C2(c3nc4c(c(=O)[nH]3)CN(C(=O)C(O)c3cccc(-c5ccnc(C(F)(F)F)c5)c3)CCC4)CC2)c1 (stereo not drawn) [51-1]
51 | > 7.30 |  | O=C(C(O)c1cccc(C(F)(F)F)c1)N1CCc2nc(C3(c4ccccc4)CC3)[nH]c(=O)c2C1 (stereo not drawn) [3-66]
52 | > 7.30 | > 8.00 | O=C([C@H](O)c1cccc(C(F)(F)F)c1)N1CCCc2nc(C3(c4cccc(-c5cccc6ccccc56)c4)CC3)[nH]c(=O)c2C1 [42-49]
